From patent US5276023A, “19-nor-steroid esters” (Roussel Uclaf, priority 1989, dated 1994)

Assay: solubility in water
Format: physicochemical

- solubility: > 250 mg/mL
Structure (SMILES): CC#C[C@]1(OC(=O)CCC(=O)O)CC[C@H]2[C@@H]3CCC4=CC(=O)CCC4=C3[C@@H](c3ccc(N(C)C(C)C)cc3)C[C@@]21C [Example 18, Sodium and 11β-[4(N-methyl-isopropylamino)-phenyl]-17α-(1-propynyl)-Δ^4,9-estradien-3-one-17β-yl succinate]
